Values joined by “and” are separate entries in the source; they are usually repeats but may differ in a detail not shown here. Identical values can stand only once. Like-named read-outs stand apart in the source and are kept apart here.
Tests used:
[1] = test system: human osteosarcoma cell line SJSA-1; assay: Inhibition of proliferation of human osteosarcoma cell line SJSA-1 (DAPI staining, In Cell Analyzer); details: Homo sapiens, SJSA-1, 72 h, read-out: IC50 (nM), inhibitory activity on proliferation of human osteosarcoma cell line SJSA-1, SJSA-1, incubated 72 h
[2] = Pharmacokinetics in ICR mice after intravenous and intragastric administration; type: in vivo; details: for MRT last: read-out: MRT(0-t); for MRT inf: read-out: MRT(0-∞); for Vd: read-out: Vz
Method in brief: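 Plasma concentration-time data, quantified by LC-MS/MS with a 1 ng/mL lower limit, gave AUC, t1/2, MRT, Cmax, Tmax, bioavailability, Vz and clearance. Overnight-fasted male ICR mice (three per route) received 2 mg/kg intravenously or 5 mg/kg intragastrically.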

MDM2 = target: T1, MDM2 (Homo sapiens, UniProt Q00987); assay: Inhibition test of MDM2-P53 (GST-MDM2, Biotin-P53, Anti-GST-Tb, SA-XL665); type: binding
T1 construct: made in house
Method in brief: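 HTRF-type assay using 4 nM GST-MDM2 (final), Biotin-P53, SA-XL665 and anti-GST-Tb in PBS with 0.1% BSA, 5 mM DTT and 1 mM AEBSF. Compounds in 5-fold serial dilutions over twelve points; incubation 90 min at 25° C with shaking before plate-reader read-out.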

[3] = ICR mice, IV 2 mg/kg, individual animal, 2 mg/kg
[4] = ICR mice, PO 5 mg/kg, individual animal, 5 mg/kg
[5] = male, ICR, mouse, plasma, iv, 2 mg/kg, ICR mice, IV 2 mg/kg, individual animal
[6] = male, ICR, mouse, plasma, iv, 2 mg/kg, ICR mice, IV 2 mg/kg, individual animal, read-out: AUC(0-t)
[7] = male, ICR, mouse, plasma, iv, 2 mg/kg, ICR mice, IV 2 mg/kg, individual animal, read-out: Cmax
[8] = male, ICR, mouse, plasma, iv, 2 mg/kg, ICR mice, IV 2 mg/kg, individual animal, read-out: t1/2 (converted)
[9] = male, ICR, mouse, plasma, iv, 2 mg/kg, ICR mice, IV 2 mg/kg, mean of 3 animals
[10] = male, ICR, mouse, plasma, iv, 2 mg/kg, ICR mice, IV 2 mg/kg, mean of 3 animals, read-out: AUC(0-t)
[11] = male, ICR, mouse, plasma, iv, 2 mg/kg, ICR mice, IV 2 mg/kg, mean of 3 animals, read-out: Cmax
[12] = male, ICR, mouse, plasma, iv, 2 mg/kg, ICR mice, IV 2 mg/kg, mean of 3 animals, read-out: Tmax
[13] = male, ICR, mouse, plasma, iv, 2 mg/kg, ICR mice, IV 2 mg/kg, mean of 3 animals, read-out: t1/2 (converted)
[14] = male, ICR, mouse, plasma, po, 5 mg/kg, ICR mice, PO 5 mg/kg, individual animal
[15] = male, ICR, mouse, plasma, po, 5 mg/kg, ICR mice, PO 5 mg/kg, individual animal, read-out: Cmax
[16] = male, ICR, mouse, plasma, po, 5 mg/kg, ICR mice, PO 5 mg/kg, individual animal, read-out: Tmax
[17] = male, ICR, mouse, plasma, po, 5 mg/kg, ICR mice, PO 5 mg/kg, mean of 3 animals
[18] = male, ICR, mouse, plasma, po, 5 mg/kg, ICR mice, PO 5 mg/kg, mean of 3 animals, read-out: AUC(0-t)
[19] = male, ICR, mouse, plasma, po, 5 mg/kg, ICR mice, PO 5 mg/kg, mean of 3 animals, read-out: Cmax
[20] = male, ICR, mouse, plasma, po, 5 mg/kg, ICR mice, PO 5 mg/kg, mean of 3 animals, read-out: Tmax
[21] = male, ICR, mouse, plasma, po, 5 mg/kg, ICR mice, PO 5 mg/kg, mean of 3 animals, read-out: t1/2 (converted)
[22] = male, ICR, mouse, plasma, po, 5 mg/kg, oral intragastric administration 5 mg/kg, read-out: AUC0-t
[23] = male, ICR, mouse, plasma, po, 5 mg/kg, oral intragastric administration 5 mg/kg, read-out: half-life (converted)
[24] = male, mouse, plasma, ICR mice, PO 5 mg/kg vs IV 2 mg/kg, from mean values, read-out: F* (bioavailability)

T1 sequence (Q00987 whole entry): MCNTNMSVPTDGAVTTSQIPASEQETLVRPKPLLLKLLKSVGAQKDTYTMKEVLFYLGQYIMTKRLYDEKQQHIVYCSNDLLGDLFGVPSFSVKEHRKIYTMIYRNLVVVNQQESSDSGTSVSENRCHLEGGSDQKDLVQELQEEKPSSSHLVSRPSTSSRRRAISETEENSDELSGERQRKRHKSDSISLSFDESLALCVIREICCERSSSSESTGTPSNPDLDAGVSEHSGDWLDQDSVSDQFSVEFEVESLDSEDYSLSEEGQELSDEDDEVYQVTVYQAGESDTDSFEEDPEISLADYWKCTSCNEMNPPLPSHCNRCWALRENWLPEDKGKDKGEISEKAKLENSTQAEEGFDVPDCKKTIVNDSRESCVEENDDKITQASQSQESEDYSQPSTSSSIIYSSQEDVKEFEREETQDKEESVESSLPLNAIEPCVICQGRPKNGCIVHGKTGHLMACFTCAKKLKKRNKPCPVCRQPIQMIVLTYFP

COc1cc(OC(C)C)ncc1-c1nc2c(n1C(C)C)[C@@]1(C(=O)Nc3cc(Cl)ccc31)N(c1cc(Cl)ccc1C)C2=O [Example S-69, (S)-6-chloro-5′-(5-chloro-2-methylphenyl)-2′-(6-isopropoxy-4-methoxypyridin-3-yl)-3′-isopropyl-3′H-spiro[dihydroindole-3,4′-pyrrolo[3,4-d]imidazole]-2,6′(5′H)-dione]
IC50 [1]: 2.29 nM
AUC(0-t) [2, 3]: 50006.21 ng·h/mL and 52203.96 ng·h/mL
AUC(0-∞) [2, 3]: 50659.35 ng·h/mL and 52314.11 ng·h/mL
CL [2, 3]: 0.66 mL/min/kg
Cmax [2, 3]: 5141.60 ng/mL and 6038.43 ng/mL
MRT(0-t) [2, 3]: 4.62 h and 4.30 h
MRT(0-∞) [2, 3]: 4.95 h and 4.35 h
Tmax [2, 3]: 30 min and 4.8 min
Vz [2, 3]: 0.23 L/kg
t1/2 [2, 3]: 4.02 h and 2.83 h
AUC(0-t) [2, 4]: 106563.84 ng·h/mL and 85266.27 ng·h/mL
AUC(0-∞) [2, 4]: 106654.00 ng·h/mL and 85298.58 ng·h/mL
Cmax [2, 4]: 10867.97 ng/mL and 11828.43 ng/mL
MRT(0-t) [2, 4]: 5.03 h and 4.46 h
MRT(0-∞) [2, 4]: 5.04 h and 4.47 h
t1/2 [2, 4]: 2.28 h and 2.03 h
AUC(0-inf) [2, 5]: 53200 ng·h/mL
clearance [2, 5]: 0.63 mL/min/kg
AUC(0-t) [2, 6]: 53100 ng·h/mL
Cmax [2, 7]: 5980 ng/mL
MRT last [2, 5]: 4.38 h
MRT inf [2, 5]: 4.44 h
Vd [2, 5]: 0.16 L/kg
half-life [2, 8]: 173 min
AUC(0-inf) [2, 9]: 52100 ng·h/mL
clearance [2, 9]: 0.64 mL/min/kg
AUC(0-t) [2, 10]: 51800 ng·h/mL
Cmax [2, 11]: 5720 ng/mL
MRT last [2, 9]: 4.43 h
MRT inf [2, 9]: 4.58 h
Tmax [2, 12]: 13.3 min
Vd [2, 9]: 0.18 L/kg
half-life [2, 13]: 194 min
AUC(0-inf) [2, 14]: 69300 ng·h/mL
AUC(0-t) ([2]; male, ICR, mouse, plasma, po, 5 mg/kg, ICR mice, PO 5 mg/kg, individual animal, read-out: AUC(0-t)): 69200 ng·h/mL
Cmax [2, 15]: 7630 ng/mL
MRT last [2, 14]: 4.92 h
MRT inf [2, 14]: 4.94 h
Tmax [2, 16]: 120 min
half-life ([2]; male, ICR, mouse, plasma, po, 5 mg/kg, ICR mice, PO 5 mg/kg, individual animal, read-out: t1/2 (converted)): 134 min
AUC(0-inf) [2, 17]: 87100 ng·h/mL
AUC(0-t) [2, 18]: 87000 ng·h/mL
Cmax [2, 19]: 10100 ng/mL
MRT last [2, 17]: 4.8 h
MRT inf [2, 17]: 4.82 h
Tmax [2, 20]: 120 min
half-life [2, 21]: 131 min
AUC(0-t) [2, 22]: 87000 ng·h/mL
half-life [2, 23]: 131 min
bioavailability [2, 24]: 67.2%
IC50 (MDM2): 1.78 nM

CCOc1cc(OC)c(-c2nc3c(n2C(C)C)[C@@]2(C(=O)Nc4cc(Cl)ccc42)N(c2cc(Cl)ccc2C)C3=O)cn1 [Example S-72, (S)-6-chloro-5′-(5-chloro-2-methylphenyl)-2′-(6-ethoxy-4-methoxypyridin-3-yl)-3′-isopropyl-3′H-spiro[dihydroindole-3,4′-pyrrolo[3,4-d]imidazole]-2,6′(5′H)-dione]
IC50 [1]: 5.9 nM
AUC(0-t) [2, 3]: 11802.83 ng·h/mL and 14847.37 ng·h/mL
AUC(0-∞) [2, 3]: 12174.58 ng·h/mL and 17305.95 ng·h/mL
CL [2, 3]: 2.74 mL/min/kg and 1.93 mL/min/kg
Cmax [2, 3]: 4839.23 ng/mL and 3686.88 ng/mL
MRT(0-t) [2, 3]: 1.52 h and 1.96 h
MRT(0-∞) [2, 3]: 1.71 h and 2.98 h
Tmax [2, 3]: 4.8 min and 60 min
Vz [2, 3]: 0.29 L/kg and 0.36 L/kg
t1/2 [2, 3]: 1.23 h and 2.16 h
AUC(0-t) [2, 4]: 51286.19 ng·h/mL and 23996.12 ng·h/mL and 26941.23 ng·h/mL
AUC(0-∞) [2, 4]: 51351.03 ng·h/mL and 24161.28 ng·h/mL and 27586.31 ng·h/mL
Cmax [2, 4]: 7160.86 ng/mL and 6289.71 ng/mL
MRT(0-t) [2, 4]: 2.18 h and 2.66 h
MRT(0-∞) [2, 4]: 2.23 h and 2.84 h
Tmax [2, 4]: 60 min
t1/2 [2, 4]: 2.54 h and 1.13 h and 1.47 h
AUC(0-inf) [2, 5]: 11900 ng·h/mL
clearance [2, 5]: 2.8 mL/min/kg
AUC(0-t) [2, 6]: 11500 ng·h/mL
Cmax [2, 7]: 4630 ng/mL
MRT last [2, 5]: 1.53 h
MRT inf [2, 5]: 1.78 h
Vd [2, 5]: 0.34 L/kg
half-life [2, 8]: 83.4 min
AUC(0-inf) [2, 9]: 13800 ng·h/mL
clearance [2, 9]: 2.49 mL/min/kg
AUC(0-t) [2, 10]: 12700 ng·h/mL
Cmax [2, 11]: 4390 ng/mL
MRT last [2, 9]: 1.67 h
MRT inf [2, 9]: 2.16 h
Tmax [2, 12]: 23.3 min
Vd [2, 9]: 0.33 L/kg
half-life [2, 13]: 95.4 min
Cmax [2, 15]: 7870 ng/mL
MRT last [2, 14]: 3.95 h
MRT inf [2, 14]: 3.98 h
Tmax [2, 16]: 30 min
AUC(0-inf) [2, 17]: 34400 ng·h/mL
AUC(0-t) [2, 18]: 34100 ng·h/mL
Cmax [2, 19]: 7110 ng/mL
MRT last [2, 17]: 2.93 h
MRT inf [2, 17]: 3.01 h
Tmax [2, 20]: 40.2 min
half-life [2, 21]: 103 min
AUC(0-t) [2, 22]: 34100 ng·h/mL
half-life [2, 23]: 103 min
bioavailability ([2]; male, ICR, mouse, plasma, oral intragastric administration 5 mg/kg, read-out: bioavailability): 107%
bioavailability [2, 24]: 107%
IC50 (MDM2): 0.9 nM

Reference: patent US11339171B2, “MDM2 inhibitors” (Gan & Lee Pharmaceuticals, priority 2017, dated 2022)
